Experimental findings from patent US20260297105A1, “RAF-MEK PROTEIN COMPLEX MODULATORS AND METHODS OF USE THEREOF” (GANDEEVA THERAPEUTICS, INC., priority 2023, published 2026) are described below.

Where two headings read alike, the source gives them in different places. Bounds are passed on as bounds.

One may read the IC50 as the concentration at which inhibition is half-maximal.

Assay [1] deals with BRAF-MEK1. The experiment in a line: BRAF-MEK TR-FRET assay, stabilization of MEK1 and BRAF interaction. Type of assay: binding. The settings on record: 4 nM BRAF, 10 nM MEK, 100 μM ATP, 1 hr at 25° C., read-out: BRAF-MEK TR-FRET Assay (EC50, fold stabilization). An excerpt: (§1) Protein expression and purification: BRAF (445-723) with N-term His-tag and C-term StrepII tag was expressed using the Expi293 system (ThermoFisher) and purified using Strep-Tactin® XT-Superflow (IBA) chromatography. ERK1 (full-length) with N-term His-tag was expressed in Rosetta DE3 cells (Millipore) and purified using HisTrap HP (Cytiva) and Superdex 200 (Cytiva) column chromatography. Full-length MEK1 for TR-FRET assays with N-term His-tag was expressed in BL21DE3 cells (ThermoFisher) and purified using HisTrap HP (Cytiva) and Superdex 200 (Cytiva) column chromatography.
Efficacy of exemplary compounds in stabilization of MEK1 and BRAF interaction: Compound stabilization of BRAF-MEK interaction was evaluated using TR-FRET (Time Resolved Fluorescence Energy Transfer). The FRET assay consisted of His-tagged MEK1 (produced in-house), GST-tagged BRAF (SignalChem, B08-11G), Anti His-Tb Cryptate donor, and Anti GST-XL665 acceptor fluorophores (PerkinElmer) to generate FRET signal upon BRAF-MEK1 binding. Compounds were prepared from DMSO stocks in assay buffer (50 mM Tris pH 7.5, 150 mM NaCl, 1 mM DTT, 0.05% Tween-20, 5 mM MgCl2, and 100 μM ATP) and incubated with 4 nM BRAF and 10 nM MEK for 1 hr at 25° C. 1 ng Anti His-Tb Cryptate/20 ng Anti GST-XL665 premix was then added and incubated for 1 hr at 25° C. TR-FRET was measured using Cytation5 microplate reader (Agilent) using Ex/Em=340/620 nm and Ex/Em=340/665 nm to determine the FRET ratio. Fold stabilization was calculated as FRET signal of treated well/DMSO control. Fold stabilization as a function of compound concentration from 2 replicate wells was fit with a 4-parameter logistic curve equation using GraphPad Prism or CDD Vault to derive EC50 values.
(§2) In this table, for the BRAF ADP Glo kinase assay, “A” indicates IC50 of less than 5 nM; “B” indicates IC50 of between 5 nM to 50 nM; and “C” indicates IC50 of between 50 nM to 500 nM. “D” indicates IC50 of greater than 500 nM. For the BRAF-MEK TR-FRET assay, “A” indicates EC50 of less than 50 nM; “B” indicates EC50 of between 50 nM to 200 nM; and “C” indicates EC50 of between 200 nM to 1 μM. “D′” indicates EC50 of greater than 1 μM. For the AlphaLisa P-ERK assay, “A” indicates IC50 of less than 1 nM; “B” indicates IC50 of between 1 nM to 10 nM; and “C” indicates IC50 of between 10 nM to 100 nM. “D” indicates IC50 of greater than 100 nM. For the cell viability assay, “A” indicates IC50 of less than 1 nM; “B” indicates IC50 of between 1 nM to 10 nM; and “C” indicates IC50 of between 10 nM to 100 nM. “D” indicates IC50 of greater than 100 nM.
On the technique in general: TR-FRET usually uses a lanthanide donor and a delayed reading to cut background.

In assay [2] the target is T1, MEK1 (Homo sapiens, UniProt Q02750).
T1 construct: purchased SignalChem M02-14H
T1 sequence (Q02750 whole entry): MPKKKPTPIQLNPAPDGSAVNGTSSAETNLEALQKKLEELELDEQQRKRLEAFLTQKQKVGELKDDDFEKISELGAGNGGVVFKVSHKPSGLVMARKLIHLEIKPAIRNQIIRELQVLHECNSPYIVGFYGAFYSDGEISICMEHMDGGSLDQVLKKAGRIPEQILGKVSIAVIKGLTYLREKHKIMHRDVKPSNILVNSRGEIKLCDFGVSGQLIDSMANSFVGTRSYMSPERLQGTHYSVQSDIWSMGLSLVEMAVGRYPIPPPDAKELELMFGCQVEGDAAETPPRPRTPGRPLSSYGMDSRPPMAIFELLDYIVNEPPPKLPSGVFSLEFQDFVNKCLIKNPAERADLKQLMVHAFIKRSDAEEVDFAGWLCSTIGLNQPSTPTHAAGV
T1 sequence (P15056 445-723 partner limits assumed): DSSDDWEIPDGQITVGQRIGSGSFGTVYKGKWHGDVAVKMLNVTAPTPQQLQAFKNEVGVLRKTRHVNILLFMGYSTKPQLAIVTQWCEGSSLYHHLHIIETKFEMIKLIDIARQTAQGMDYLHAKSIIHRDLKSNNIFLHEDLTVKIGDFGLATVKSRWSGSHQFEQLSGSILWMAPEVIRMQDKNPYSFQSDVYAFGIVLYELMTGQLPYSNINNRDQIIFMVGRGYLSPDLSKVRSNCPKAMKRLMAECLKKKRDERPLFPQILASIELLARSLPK
Briefly: MEK1 kinase cascade assay (ADP-Glo), inhibition of MEK1 kinase activity. Type of assay: biochemical. The settings on record: 25 nM BRAF, 6.25 nM MEK1, 0.5 μM ERK, 1 mM ATP; 20 min preincubation, 1 hr at 25° C.; read-out: BRAF ADP Glo kinase assay V3 (IC50).
Excerpt: as §1
Efficacy of exemplary compounds in inhibition of MEK1 kinase activity: The effect of compound MEK1 inhibition was evaluated using an ADP detection system for kinases, such as the ADP-Glo assay (Promega). The MEK1 kinase cascade assay consisted of 9 μL reaction volumes in 384-well white, opaque Optiplates (PerkinElmer). Compounds were prepared from DMSO stocks in assay buffer (10 mM HEPES pH 7.5, 5 mM MgCl2, 2 mM CHAPS, and 1 mM DTT) and preincubated with 25 nM BRAF for 20 mins at 25° C. prior to addition of 6.25 nM MEK1/0.5 μM ERK/1 mM ATP premix to initiate the kinase reaction. Both BRAF and ERK1 were produced in-house, and MEK1 was purchased from SignalChem (M02-14H). DMSO was kept constant at a final concentration of 1%. After a 1 hr incubation at 25° C., conversion of ATP to ADP was detected using ADP-Glo™ reagents according to the manufacturer's protocol. Luminescence was measured using a CLARIOstar microplate reader (BMG). Percent (%) Inhibition was calculated by normalizing to DMSO control (max) and 1 μM Trametinib (min). % inhibition as a function of compound concentration from 2 replicate wells was fit with a 4-parameter logistic curve equation using GraphPad Prism or CDD Vault to derive IC50 values.
as §2
(In ADP-Glo the light output rises with the ADP produced.)

Regarding `CN(C)C(=O)Oc1ccc2c(c1)OC(=O)N(Cc1cccc(NS(=O)(=O)N3CCC(C(N)=O)C3)c1F)C2` (stereo not drawn) [Compound 28, 3-[(3-{[(3-carbamoylpyrrolidin-1-yl)sulfonyl]amino}-2-fluorophenyl)methyl]-2-oxo-3,4-dihydro-2H-1,3-benzoxazin-7-yl N,N-dimethylcarbamate], in assay [1], the EC50 lay in the range of 0.2 to 1 µM. Further, the IC50 in assay [2] fell in the range of 0.005 to 0.05 µM. With `CN(C)S(=O)(=O)Nc1nccc(CN2C(=O)Oc3cc(Oc4cccnn4)ccc3C23CCC3)c1F` [Compound 181, 3-{[2-(dimethylaminosulfonylamino)-3-fluoro-4-pyridyl]methyl}-7-(3-pyridazinyloxy)-2H,3H-spiro[1,3-benzoxazine-4,1′-cyclobutan]-2-one], the EC50 in assay [1] lay in the range of 0.2 to 1 µM. For the same compound, the IC50 in assay [2] was 0.005 to 0.05 µM. On to `CNS(=O)(=O)Nc1cccc(CN2Cc3cc(Cl)c(OC(=O)C4CC4)cc3OC2=O)c1F` [Compound 130, 6-chloro-3-(2-fluoro-3-((N-methylsulfamoyl)amino)benzyl)-2-oxo-3,4-dihydro-2H-benzo[e][1,3]oxazin-7-yl cyclopropanecarboxylate], for which, in assay [1], the EC50 is 0.05 to 0.2 µM.

Consider `O=C1Oc2cc(Oc3cccnn3)ccc2C2(CCC2)N1Cc1ccnc(NS(=O)(=O)C2CC2)c1F` [Compound 163, (cyclopropylsulfonyl)[3-fluoro-4-({2-oxo-7-(3-pyridazinyloxy)-2H,3H-spiro[1,3-benzoxazine-4,1′-cyclobutan]-3-yl}methyl)-2-pyridyl]amine], for which, in assay [1], the EC50 is 0.2 to 1 µM. In the case of `C[C@H]1c2ccc(Oc3cccnn3)c(F)c2OC(=O)N1Cc1cccc(NS(=O)(=O)N(C)C)c1F` (single isomer, unassigned) [Compound 44], the EC50 in assay [1] is 0.2 to 1 µM. For the same compound, the IC50 in assay [2] was below 0.005 µM. For `CNS(=O)(=O)Nc1nccc(CN2C(=O)Oc3cc(Oc4cccnn4)cc(F)c3C23CCC3)c1F` [Compound 171, 5-fluoro-3-{[3-fluoro-2-(methylaminosulfonylamino)-4-pyridyl]methyl}-7-(3-pyridazinyloxy)-2H,3H-spiro[1,3-benzoxazine-4,1′-cyclobutan]-2-one], the EC50 in assay [1] was below 0.05 µM. Further, in assay [2], the IC50 was below 0.005 µM. As to `CNS(=O)(=O)Nc1nccc(CN2C(=O)Oc3cc(Oc4nccnn4)cnc3[C@@H]2C)c1F` (stereo in doubt) [Compound 199, 3-{[3-fluoro-2-(methylaminosulfonylamino)-4-pyridyl]methyl}-4-methyl-7-(1,2,4-triazin-3-yloxy)-3,4-dihydro-2H-1-oxa-3,5-diazanaphthalen-2-one], the EC50 in assay [1] (60 min) lay within 0.05 to 0.2 µM. Consider `CN(C)S(=O)(=O)Nc1cccc(CN2C(=O)Oc3cc(Oc4cccnn4)ccc3C23CCC3)c1F` [Compound 25, 3-{[3-(dimethylaminosulfonylamino)-2-fluorophenyl]methyl}-7-(3-pyridazinyloxy)-2H,3H-spiro[1,3-benzoxazine-4,1′-cyclobutan]-2-one], for which, in assay [1], the EC50 was below 0.05 µM. For the same compound, the IC50 in assay [2] is below 0.005 µM. As for `CNS(=O)(=O)Cc1cccc(CN2C(=O)Oc3cc(Oc4cccnn4)ccc3C23COC3)c1F` [Compound 46, 1-(2-fluoro-3-{[2-oxo-7-(pyridazin-3-yloxy)-2,3-dihydrospiro[1,3-benzoxazine-4,3′-oxetan]-3-yl]methyl}phenyl)-N-methylmethanesulfonamide], the IC50 in assay [2] lay within 0.05 to 0.5 µM. With `CNS(=O)(=O)Nc1nccc(CN2C(=O)Oc3cc(Oc4cccnn4)cnc3[C@H]2C)c1F` (stereo in doubt) [Compound 193, 3-{[3-fluoro-2-(methylaminosulfonylamino)-4 pyridyl]methyl}-4-methyl-7-(3-pyridazinyloxy)-3,4-dihydro-2H-1-oxa-3,5 diazanaphthalen-2-one], the EC50 in assay [1] (60 min) is below 0.05 µM. Consider `CNS(=O)(=O)Nc1cccc(CN2C(=O)Oc3cc(Oc4cnccn4)ccc3C23COC3)c1F` [Compound 70, 3-({2-fluoro-3-[(methylsulfamoyl)amino]phenyl}methyl)-7-(pyrazin-2-yloxy)-2,3-dihydrospiro[1,3-benzoxazine-4,3′-oxetan]-2-one], for which, in assay [2], the IC50 was 0.05 to 0.5 µM. Same read-out and setting: the same measure for `C[C@@H]1c2c(F)cc(Oc3cccnn3)cc2OC(=O)N1Cc1cccc(NS(=O)(=O)C2CC2)c1F` (single isomer, unassigned) [Compound 54]: 0.05 to 0.5 µM. For `CNS(=O)(=O)Nc1nccc(CN2C(=O)Oc3cc(Oc4ncccn4)ccc3C23CCC3)c1F` [Compound 160, 3-{[3-fluoro-2-(methylaminosulfonylamino)-4-pyridyl]methyl}-7-(2-pyrimidinyloxy)-2H,3H-spiro[1,3-benzoxazine-4,1′-cyclobutan]-2-one], in assay [1], the EC50 was in the range of 0.2 to 1 µM. Turning to `CNS(=O)(=O)Nc1cccc(CN2Cc3ccc(OC(=O)C4CC4)cc3OC2=O)c1F` [Compound 147, 3-(2-fluoro-3-((N-methylsulfamoyl)amino)benzyl)-2-oxo-3,4-dihydro-2H-benzo[e][1,3]oxazin-7-yl cyclopropanecarboxylate], the EC50 in assay [1] was in the range of 0.05 to 0.2 µM. In the case of `CNS(=O)(=O)Nc1nccc(CN2C(=O)Oc3cc(Oc4ncco4)cnc3[C@@H]2C)c1F` (stereo in doubt) [Compound 190, 3-{[3-fluoro-2-(methylaminosulfonylamino)-4-pyridyl]methyl}-4-methyl-7-(1,3-oxazol-2-yloxy)-3,4-dihydro-2H-1-oxa-3,5-diazanaphthalen-2-one], the IC50 in assay [2] lay in the range of 0.005 to 0.05 µM.

In the case of `CNS(=O)(=O)Nc1cccc(CN2Cc3ccc(OC4COC4)cc3OC2=O)c1F` [Compound 98, 3-{[2-fluoro-3-(methylaminosulfonylamino)phenyl]methyl}-7-(3-oxetanyloxy)-3,4-dihydro-2H-1,3-benzoxazin-2-one], the IC50 in assay [2] was above 0.5 µM. For `CNS(=O)(=O)Nc1cccc(CN2Cc3cc(Cl)c(OC(=O)C(C)C)cc3OC2=O)c1F` [Compound 129, 6-chloro-3-(2-fluoro-3-((N-methylsulfamoyl)amino)benzyl)-2-oxo-3,4-dihydro-2H-benzo[e][1,3]oxazin-7-yl isobutyrate], the EC50 in assay [1] was 0.2 to 1 µM. As to `O=C1Oc2cc(Oc3ncco3)c(F)cc2C2(COC2)N1Cc1ccnc(NS(=O)(=O)C2CC2)c1F` [Compound 172, N-(3-fluoro-4-((6-fluoro-7-(oxazol-2-yloxy)-2-oxospiro[benzo[e][1,3]oxazine-4,3′-oxetan]-3(2H)-yl)methyl)pyridin-2-yl)cyclopropanesulfonamide], the IC50 in assay [2] lay within 0.05 to 0.5 µM.

As for `CNS(=O)(=O)Nc1cccc(CN2C(=O)Oc3cc(Oc4ncco4)cnc3[C@H]2C)c1F` (stereo in doubt) [Compound 189, 3-{[2-fluoro-3-(methylaminosulfonylamino)phenyl]methyl}-4-methyl-7-(1,3-oxazol-2-yloxy)-3,4-dihydro-2H-1-oxa-3,5-diazanaphthalen-2-one], in assay [2], the IC50 was in the range of 0.05 to 0.5 µM.
